According to the CheMixHub ionic liquid set:
± gives the uncertainty stated by the source.

Assay: xn = mol fraction of the nth substance listed

O=S(=O)([N-]S(=O)(=O)C(F)(F)F)C(F)(F)F.[Na+] + O=S(=O)([N-]S(=O)(=O)C(F)(F)F)C(F)(F)F.[Li+]
100 kPa, frequency 1 MHz, x2 = 0.67
Conditions	electrical conductivity [S/m]
473.6 K	0.114 ± 0.012
483.1 K	0.156 ± 0.016
492.1 K	0.205 ± 0.021
502.4 K	0.269 ± 0.028
512.5 K	0.342 ± 0.035
523.2 K	0.435 ± 0.045
531.5 K	0.533 ± 0.054
543.3 K	0.635 ± 0.064
552 K	0.753 ± 0.077
561.2 K	0.91 ± 0.092
571 K	1.02 ± 0.1

100 kPa, x2 = 0.67
Conditions	viscosity [mPa·s]
473.9 K	411 ± 47
483.1 K	267 ± 30
492.6 K	203 ± 22
502.5 K	146 ± 16
512.8 K	106 ± 11
523.6 K	78.1 ± 8.2
531.9 K	60.7 ± 6.3
543.5 K	46.8 ± 4.8
552.5 K	36.2 ± 3.8
561.8 K	29.1 ± 3

CCCCCCCCn1cc[n+](C)c1.[Br-] + OC1OC[C@@H](O)[C@H](O)[C@H]1O + O
298.15 K, 101 kPa
Conditions	viscosity [mPa·s]
x2 = 0, x1 = 0.001831	0.965 ± 0.014
x2 = 0, x1 = 0.003598	1.025 ± 0.015
x2 = 0, x1 = 0.005443	1.103 ± 0.015
x2 = 0, x1 = 0.007132	1.172 ± 0.015

CCn1cc[nH+]c1.[Cl-] + OCC(O)CO
Conditions	viscosity [mPa·s]
303.15 K, 100 kPa, x1 = 0.333	65.7 ± 0.7

CCCC[n+]1ccn(C)c1.O=S(=O)([O-])C(F)(F)F + OCCO
100 kPa
Conditions	viscosity [mPa·s]
298.15 K, x1 = 0.0926	15.47 ± 0.63
298.15 K, x1 = 0.6922	33.7 ± 1.4
303.15 K, x1 = 0.0926	12.53 ± 0.51
303.15 K, x1 = 0.4999	21.87 ± 0.9
303.15 K, x1 = 0.6922	27.7 ± 1.1
308.15 K, x1 = 0.2985	13.86 ± 0.57
308.15 K, x1 = 0.4999	18.33 ± 0.75
308.15 K, x1 = 0.6922	23.66 ± 0.98
308.15 K, x1 = 0.7966	29 ± 1.2
313.15 K, x1 = 0.2985	11.67 ± 0.48
313.15 K, x1 = 0.4999	15.58 ± 0.64
313.15 K, x1 = 0.6922	20.18 ± 0.83
318.15 K, x1 = 0.0926	7.45 ± 0.3
318.15 K, x1 = 0.4999	13.4 ± 0.55
323.15 K, x1 = 0.1936	6.92 ± 0.28
323.15 K, x1 = 0.3912	9.9 ± 0.41
323.15 K, x1 = 0.7966	18.19 ± 0.75

CCCC[n+]1ccn(C)c1.[Cl-] + OC[C@H]1O[C@@](CO)(O[C@H]2O[C@H](CO)[C@@H](O)[C@H](O)[C@H]2O)[C@@H](O)[C@@H]1O + O
298.15 K, 101.3 kPa
Conditions	electrical conductivity [S/m]
x2 = 0, x1 = 8.71e-06	0.00583 ± 6e-05
x2 = 0, x1 = 1.208e-05	0.00794 ± 8e-05
x2 = 0, x1 = 1.485e-05	0.00965 ± 0.0001
x2 = 0, x1 = 1.707e-05	0.01101 ± 0.00011
x2 = 0, x1 = 1.937e-05	0.01241 ± 0.00012
x2 = 0, x1 = 2.164e-05	0.0138 ± 0.00014
x2 = 0, x1 = 2.397e-05	0.0152 ± 0.00015
x2 = 0, x1 = 2.6e-05	0.0164 ± 0.00017
x2 = 0, x1 = 2.824e-05	0.0177 ± 0.00018
x2 = 0, x1 = 3.029e-05	0.019 ± 0.00019
x2 = 0.003591, x1 = 1.096e-05	0.00618 ± 6e-05
x2 = 0.003591, x1 = 1.434e-05	0.00795 ± 8e-05
x2 = 0.003591, x1 = 1.771e-05	0.0097 ± 0.0001
x2 = 0.003591, x1 = 2.081e-05	0.0113 ± 0.00011
x2 = 0.003591, x1 = 2.41e-05	0.013 ± 0.00013
x2 = 0.003591, x1 = 2.709e-05	0.0145 ± 0.00015
x2 = 0.003591, x1 = 3.023e-05	0.01612 ± 0.00016
x2 = 0.003591, x1 = 3.313e-05	0.0176 ± 0.00018
x2 = 0.003591, x1 = 3.593e-05	0.019 ± 0.00019
x2 = 0.007156, x1 = 8.21e-06	0.00407 ± 4e-05
x2 = 0.007156, x1 = 1.202e-05	0.00576 ± 6e-05
x2 = 0.007156, x1 = 1.591e-05	0.00748 ± 8e-05
x2 = 0.007156, x1 = 1.939e-05	0.009 ± 9e-05
x2 = 0.007156, x1 = 2.274e-05	0.0105 ± 0.00011
x2 = 0.007156, x1 = 2.585e-05	0.0118 ± 0.00012
x2 = 0.007156, x1 = 2.894e-05	0.01315 ± 0.00013
x2 = 0.007156, x1 = 3.183e-05	0.01439 ± 0.00014
x2 = 0.007156, x1 = 3.476e-05	0.0156 ± 0.00016
x2 = 0.007156, x1 = 3.761e-05	0.0169 ± 0.00017
x2 = 0.0107, x1 = 9.71e-06	0.00386 ± 4e-05
x2 = 0.0107, x1 = 2.409e-05	0.00888 ± 9e-05
x2 = 0.0107, x1 = 3.038e-05	0.01101 ± 0.00011
x2 = 0.0107, x1 = 3.477e-05	0.0125 ± 0.00013
x2 = 0.0107, x1 = 3.967e-05	0.01408 ± 0.00014
x2 = 0.0107, x1 = 4.399e-05	0.0155 ± 0.00016
x2 = 0.0107, x1 = 4.83e-05	0.0169 ± 0.00017
x2 = 0.0107, x1 = 5.264e-05	0.01825 ± 0.00018
x2 = 0.0107, x1 = 5.673e-05	0.0195 ± 0.0002
x2 = 0.01421, x1 = 1.037e-05	0.00348 ± 4e-05
x2 = 0.01421, x1 = 1.591e-05	0.00514 ± 5e-05
x2 = 0.01421, x1 = 2.109e-05	0.00667 ± 7e-05
x2 = 0.01421, x1 = 2.647e-05	0.00823 ± 8e-05
x2 = 0.01421, x1 = 3.163e-05	0.00971 ± 0.0001
x2 = 0.01421, x1 = 3.643e-05	0.01107 ± 0.00011
x2 = 0.01421, x1 = 4.107e-05	0.01237 ± 0.00012
x2 = 0.01421, x1 = 4.582e-05	0.0137 ± 0.00014
x2 = 0.01421, x1 = 5.048e-05	0.015 ± 0.00015
x2 = 0.01421, x1 = 5.498e-05	0.01621 ± 0.00016
x2 = 0.01421, x1 = 5.983e-05	0.0175 ± 0.00018
x2 = 0.0177, x1 = 1.237e-05	0.00351 ± 4e-05
x2 = 0.0177, x1 = 1.842e-05	0.00504 ± 5e-05
x2 = 0.0177, x1 = 2.347e-05	0.00631 ± 6e-05
x2 = 0.0177, x1 = 2.887e-05	0.00764 ± 8e-05
x2 = 0.0177, x1 = 3.44e-05	0.00899 ± 9e-05
x2 = 0.0177, x1 = 4.072e-05	0.0105 ± 0.00011
x2 = 0.0177, x1 = 4.633e-05	0.0118 ± 0.00012
x2 = 0.0177, x1 = 5.265e-05	0.01333 ± 0.00013
x2 = 0.0177, x1 = 5.909e-05	0.0148 ± 0.00015
x2 = 0.0177, x1 = 6.545e-05	0.0163 ± 0.00016
x2 = 0.0177, x1 = 7.135e-05	0.0176 ± 0.00018

CCCC[n+]1ccn(C)c1.[Cl-] + OC[C@H]1O[C@H](O[C@H]2[C@H](O)[C@@H](O)C(O)O[C@@H]2CO)[C@H](O)[C@@H](O)[C@@H]1O + O
298.15 K, 101.3 kPa
Conditions	electrical conductivity [S/m]
x2 = 0, x1 = 8.71e-06	0.00583 ± 6e-05
x2 = 0, x1 = 1.208e-05	0.00794 ± 8e-05
x2 = 0, x1 = 1.485e-05	0.00965 ± 0.0001
x2 = 0, x1 = 1.707e-05	0.01101 ± 0.00011
x2 = 0, x1 = 1.937e-05	0.01241 ± 0.00012
x2 = 0, x1 = 2.164e-05	0.0138 ± 0.00014
x2 = 0, x1 = 2.397e-05	0.0152 ± 0.00015
x2 = 0, x1 = 2.6e-05	0.0164 ± 0.00017
x2 = 0, x1 = 2.824e-05	0.0177 ± 0.00018
x2 = 0, x1 = 3.029e-05	0.019 ± 0.00019

CCCCCCCCn1cc[n+](C)c1.[Br-] + [Cl-].[Li+] + O
298.15 K, 100 kPa
Conditions	viscosity [mPa·s]
x2 = 0, x3 = 0.9487	7.96 ± 0.41
x2 = 0.00845, x3 = 0.9403	7.94 ± 0.41
x2 = 0.0171, x3 = 0.9316	8.68 ± 0.45
x2 = 0.02497, x3 = 0.9237	10.09 ± 0.53
x2 = 0.03315, x3 = 0.9155	10.9 ± 0.57
x2 = 0.04088, x3 = 0.9078	12.6 ± 0.66

CCCC[n+]1ccn(C)c1.O=S(=O)([O-])C(F)(F)F + c1ccccc1
100 kPa
Conditions	viscosity [mPa·s]
298.15 K, x2 = 0	88 ± 11
298.15 K, x2 = 0.122	64.3 ± 3.6
298.15 K, x2 = 0.573	12.62 ± 0.69
308.15 K, x2 = 0.122	42.2 ± 2.2
308.15 K, x2 = 0.304	25.4 ± 1.3
318.15 K, x2 = 0.467	10.64 ± 0.59
318.15 K, x2 = 0.573	7.22 ± 0.42
328.15 K, x2 = 0.304	13.62 ± 0.74
328.15 K, x2 = 0.467	8.2 ± 0.47
